The record followed here is PMC11574045, “A cofactor-induced repressive type of transcription factor condensation can be induced by synthetic peptides to suppress tumorigenesis” (The EMBO Journal, 2024).

The subject of one assay is HGC-27 cells. The assay is described as follows: siRNA screening based on cell growth. More on the design: species or system human. Particulars: Figure 2B source data; siRNA against the named gene; Z score based analysis. As for the experimental part:
For screening based on cell growth, HGC-27 cells (2000 per well) were seeded into a 96-well plate overnight. The individual siRNAs targeting 192 BioID-identified genes were then added into each well to a final concentration of 25 nM. After subsequent incubation for 48 h, the cells were analyzed using an ATP-based CellCounting-Lite^TM 2.0 reagent (Vazyme, Nanjing, China) according to the manufacturer’s instructions. The intracellular ATP contents were measured using an EnSight™ Multimode Microplate Reader (Perkin Elmer).

A further assay concerns GFP-TEAD4 condensates. The assay can be described thus: siRNA screening based on TEAD4 condensate. The class given is cell-based. To be noted: Figure 2B source data; siRNA against the named gene; Z score based analysis. As to the method: siRNA reagents were obtained from the Dharmacon Human ON-TARGETplus siRNA Smartpool Library (Thermo) as described previously (Tang et al, [2020]). […] Lipofectamine RNAiMAX reagent (Thermo) at a volume of 0.05 μl per well was then added to the siRNA-loaded plates. Subsequently, cells expressing GFP-TEAD4 were seeded into the plate at 2000 cells per well. After subsequent transfection for 48 h, the cells were fixed with 4% PFA at room temperature for 30 min. DAPI was used to identify individual nuclei. The plates were kept at 4 °C in the dark before being analyzed using the Opera system. Twenty focus fields per well were scanned and analyzed. Scrambled siRNA was used as an internal reference on each plate.

For assay [1], the system named is GFP-TEAD4 condensates in HEK293FT cells. The assay is described as follows: GFP-TEAD4 condensate imaging, condensed fraction in cells. Particulars: Figure 2D source data, GFP-TEAD4 condensates with co-expressed cofactor, with or without 1,6-Hex, single measurement. It counts as cell-based.

As for “VGLL4: transcriptional cofactor protein with two TDU domains binding TEAD4”, the “Z score of cell growth” value with HGC-27 cells was 3.062. Further, the “Z score of condensed fraction” value in the assay with GFP-TEAD4 condensates is listed as -4.055. Moreover, the Condensed fraction in assay [1] (replicate 1 of 9) is listed as 31.2622%; in assay [1] (replicate 2 of 9), 58.3357%; in assay [1] (replicate 3 of 9) it was 38.0997%; in assay [1] (replicate 4 of 9) it was 50.0073%; in assay [1] (replicate 5 of 9), 50.0033%; in assay [1] (replicate 6 of 9) it was 46.4819%. For the same substance, the figures for the Condensed fraction in assay [1] (replicate 7 of 9), in assay [1] (replicate 8 of 9) and in assay [1] (replicate 9 of 9) were 42.8861%, 42.8738% and 35.7201%, respectively.
